Non-standard residues stand in square brackets, D forms with d. Residues, ends and D or L forms follow the SMILES beside them. NMeD = CN[C@@H](CC(=O)O)C(=O)O; Orn = NCCC[C@H](N)C(=O)O
Columns and labels:
[1] = target: fixed activated platelets (Homo sapiens, UniProt P05106+P08514); assay: Platelet Aggregation Assay (fibrinogen-mediated aggregation of fixed-activated platelets); type: cell-based; settings: for inhibition at 25 µM: read-out: Inhibition of Fibrinogen Mediated Platelet Aggregation % inhibition at 25 μM; for IC50: fixed activated platelets, human fibrinogen 250 μg/ml, read-out: Inhibition of Fibrinogen Mediated Platelet Aggregation IC50; for inhibition at 100 µM: read-out: Inhibition of Fibrinogen Mediated Platelet Aggregation % inhibition at 100 μM
Experimental: PLATELET AGGREGATION ASSAY
Preparation of Fixed-Activated Platelets
To the activated platelets is added paraformaldehyde to a final concentration of 0.50% and this incubated at room temperature for 30 minutes. The fixed activated platelets are then collected by centrifugation at 650×g for 15 minutes.
Platelet Aggregation Assay
The fixed activated platelets are incubated with a selected dose of the compound to be tested for platelet aggregation inhibition for one minute and aggregation initiated by addition of human fibrinogen to a final concentration of 250 μg/ml. A platelet aggregation profiler Model PAP-4 is used to record the platelet aggregation.

[2] = target: thrombin-stimulated platelets (Homo sapiens, UniProt P05106+P08514); assay: Fibrinogen-Binding Assay (125I-fibrinogen binding to platelets); settings: 125I-fibrinogen 0.176 μmol/liter, thrombin-stimulated platelets; read-out: Inhibition of 125I-Fibrinogen Binding to Platelets IC50
Experimental: Platelets are washed free of plasma constituents by the albumin density-gradient technique of Walsh, P. N., et al., Br. J. Haematol. […] After these additions, the final platelet count in the mixture is 1×10^11 /liter. After incubation for an additional 30 minutes at 22°-25° C., bound and free ligand are separated by centrifuging 50 μl of the mixture through 300 μl of 20% sucrose at 12,000×g for 4 minutes. The platelet pellet is then separated from the rest of the mixture to determine platelet-bound radioactivity. Nonspecific binding is measured in mixtures containing an excess of unlabeled ligand. […] The IC50 is derived by plotting residual fibrinogen binding against the logarithm of the sample compound's concentration.

Chain of fixed activated platelets (P08514 32-1039): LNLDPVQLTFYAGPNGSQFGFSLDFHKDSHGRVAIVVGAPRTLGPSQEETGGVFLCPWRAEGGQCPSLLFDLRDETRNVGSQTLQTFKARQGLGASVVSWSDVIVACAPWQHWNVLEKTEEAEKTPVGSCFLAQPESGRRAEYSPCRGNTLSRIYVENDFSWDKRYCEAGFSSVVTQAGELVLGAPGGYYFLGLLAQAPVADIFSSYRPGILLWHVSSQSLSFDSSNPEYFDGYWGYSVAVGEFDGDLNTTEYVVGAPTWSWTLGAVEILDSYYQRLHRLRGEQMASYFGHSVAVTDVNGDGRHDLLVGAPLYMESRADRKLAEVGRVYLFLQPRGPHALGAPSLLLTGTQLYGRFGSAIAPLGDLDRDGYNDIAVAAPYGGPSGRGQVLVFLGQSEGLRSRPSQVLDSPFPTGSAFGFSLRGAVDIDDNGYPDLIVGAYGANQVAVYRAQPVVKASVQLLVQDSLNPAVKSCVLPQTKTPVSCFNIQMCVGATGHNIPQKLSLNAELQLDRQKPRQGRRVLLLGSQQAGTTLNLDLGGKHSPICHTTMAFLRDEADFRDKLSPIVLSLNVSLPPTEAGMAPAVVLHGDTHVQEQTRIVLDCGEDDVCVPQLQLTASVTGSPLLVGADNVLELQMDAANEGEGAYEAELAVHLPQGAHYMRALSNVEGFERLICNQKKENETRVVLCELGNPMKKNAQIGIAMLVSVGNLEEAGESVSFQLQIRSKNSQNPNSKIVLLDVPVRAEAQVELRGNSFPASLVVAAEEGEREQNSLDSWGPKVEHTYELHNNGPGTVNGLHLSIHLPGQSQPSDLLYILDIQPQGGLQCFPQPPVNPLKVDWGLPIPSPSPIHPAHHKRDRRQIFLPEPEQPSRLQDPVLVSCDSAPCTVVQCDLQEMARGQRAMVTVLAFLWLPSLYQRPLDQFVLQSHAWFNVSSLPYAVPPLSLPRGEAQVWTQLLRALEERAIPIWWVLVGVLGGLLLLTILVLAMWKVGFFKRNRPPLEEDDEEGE
Chain of fixed activated platelets (P05106 27-788): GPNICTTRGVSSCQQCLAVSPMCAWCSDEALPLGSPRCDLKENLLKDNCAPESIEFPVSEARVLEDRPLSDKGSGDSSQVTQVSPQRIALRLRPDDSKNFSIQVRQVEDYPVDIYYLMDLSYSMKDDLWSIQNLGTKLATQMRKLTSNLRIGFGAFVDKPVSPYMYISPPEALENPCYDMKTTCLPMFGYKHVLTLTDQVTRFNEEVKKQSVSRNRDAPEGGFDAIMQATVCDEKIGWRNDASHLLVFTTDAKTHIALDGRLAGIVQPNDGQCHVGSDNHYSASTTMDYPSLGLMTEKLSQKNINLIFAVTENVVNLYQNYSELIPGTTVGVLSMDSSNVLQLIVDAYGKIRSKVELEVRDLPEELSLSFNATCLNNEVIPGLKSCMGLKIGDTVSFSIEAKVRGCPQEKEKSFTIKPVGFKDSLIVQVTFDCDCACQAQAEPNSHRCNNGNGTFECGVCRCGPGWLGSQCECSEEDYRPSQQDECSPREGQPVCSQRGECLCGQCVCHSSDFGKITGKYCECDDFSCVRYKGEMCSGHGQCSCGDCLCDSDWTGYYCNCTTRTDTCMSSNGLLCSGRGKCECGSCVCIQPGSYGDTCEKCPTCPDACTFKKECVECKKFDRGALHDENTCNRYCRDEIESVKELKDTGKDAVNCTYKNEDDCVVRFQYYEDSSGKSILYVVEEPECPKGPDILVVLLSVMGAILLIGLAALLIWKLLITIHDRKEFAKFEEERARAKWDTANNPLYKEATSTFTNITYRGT
Chain of thrombin-stimulated platelets (P08514 32-1039): as the sequence (P08514 32-1039) above
Chain of thrombin-stimulated platelets (P05106 27-788): as the sequence (P05106 27-788) above

Cc1nccn1CCCCCCCCC(=O)N[C@@H](CC(=O)O)C(=O)N[C@H](C(=O)O)C(C)C
inhibition at 25 µM [1]: 74%

CCC(CCCCCCNC(=N)N)C(=O)NC(CC(=O)O)C(=O)N[C@H](C(=O)O)C(C)C (mixture of isomers) [8-Guanidino-2-(R,S)-ethyl-octanoyl-L-aspartyl-L-valine]
IC50 [2]: > 200000 nM | inhibition at 25 µM [1]: 30%

N=C(N)NCCCCC(=O)NCC(=O)N[C@@H](CC(=O)O)C(=O)N1CCc2ccccc2C1 [2-[N-(5-guanidinopentanoyl)glycyl-L-aspartyl]-1,2,3,4-tetrahydroisoquinoline]
IC50 [2]: 130000 nM | IC50 [1]: 20400 nM | inhibition at 100 µM [1]: 48%

CC(C)[C@H](NC(=O)[C@H](CC(=O)O)NC(=O)CN(C)C(=O)CCCNC(=N)N)C(=O)O [4-Guanidinobutanoyl-L-sarcosyl-L-aspartyl-L-valine]
IC50 [2]: 3300 nM | IC50 [1]: 10800 nM | inhibition at 25 µM [1]: 84%

CCN(CC(=O)N[C@@H](CC(=O)O)C(=O)N[C@H](C(=O)O)C(C)C)C(=O)CCCNC(=N)N [4-Guanidinobutanoyl-N-(ethyl)glycyl-L-aspartyl-L-valine]
IC50 [2]: 450 nM | IC50 [1]: 2700 nM | inhibition at 25 µM [1]: 94%

CC(C)[C@H](NC(=O)[C@H](CC(=O)O)NC(=O)CNC(=O)CCCNC(=N)N)C(=O)O [4-Guanidinobutanoyl-glycyl-L-aspartyl-L-valine]
IC50 [2]: 10000 nM | IC50 [1]: 21900 nM | inhibition at 25 µM [1]: 43%

CC(C)[C@H](NC(=O)[C@H](CC(=O)O)NC(=O)CN(C)C(=O)CCCCn1ccnc1)C(=O)O [5-(Imidazol-1-yl)-pentanoyl-sarcosyl-L-aspartyl-L-valine]
IC50 [2]: 150 nM | IC50 [1]: 1500 nM | inhibition at 25 µM [1]: 95%

CC(C)[C@H](NC(=O)[C@H](CC(=O)O)NC(=O)CNC(=O)CCCCn1ccnc1)C(=O)O [5-(Imidazol-1-yl)-valeroylglycyl-L-aspartyl-L-valine]
IC50 [2]: 1250 nM | IC50 [1]: 20200 nM | inhibition at 25 µM [1]: 58%

CCN(CC(=O)N[C@@H](CC(=O)O)C(=O)N[C@H](C(=O)O)C(C)C)C(=O)CCCCNC(=N)N [5-Guanidinopentanoyl-N-ethylglycyl-L-aspartyl-L-valine]
IC50 [2]: 40 nM | IC50 [1]: 630 nM | inhibition at 25 µM [1]: 91%

CC(C)[C@H](NC(=O)[C@H](CC(=O)O)NC(=O)CN(C)C(=O)CCCCNC(=N)N)C(=O)O [5-Guanidinovaleroyl-sarcosyl-L-aspartyl-L-valine]
IC50 [2]: 1000 nM | IC50 [1]: 520 nM | inhibition at 25 µM [1]: 94%

CCN(CC(=O)N[C@@H](CC(=O)O)C(=O)N[C@@H](CCCNC(=N)N)C(=O)O)C(=O)CCCCNC(=N)N [5-guanidino-N-(ethyl)-glycyl-L-aspartyl-L-arginine]
IC50 [2]: 1900 nM | IC50 [1]: 230 nM | inhibition at 25 µM [1]: 93%

CC(C)[C@H](NC(=O)[C@H](CC(=O)O)NC(=O)CCCCNC(=N)N)C(=O)O [5-guanidinovaleroyl-L-aspartyl-L-valine]
inhibition at 25 µM [1]: 28%

CC(C)[C@H](NC(=O)[C@H](CC(=O)O)NC(=O)CN(C)C(=O)CCCCCn1ccnc1)C(=O)O [6-(Imidazol-1-yl)-hexanoylsarcosyl-L-aspartyl]
inhibition at 25 µM [1]: 94%

CCCCOC(=O)[C@@H](NC(=O)[C@H](CC(=O)O)NC(=O)CN(C)C(=O)CCCCCNC(=N)N)C(C)C [6-Guanidinohexanoyl-sarcosyl-L-aspartyl-L-valine-butylester]
IC50 [1]: 4500 nM | inhibition at 25 µM [1]: 90%

CCCCOC(=O)C[C@H](NC(=O)CN(C)C(=O)CCCCCNC(=N)N)C(=O)N[C@H](C(=O)O)C(C)C [6-Guanidinohexanoyl-sarcosyl-L-aspartyl-β-butylester-L-valine]
IC50 [1]: > 25000 nM | inhibition at 25 µM [1]: 18%

CC(C)[C@H](NC(=O)[C@H](CC(=O)O)NC(=O)CCCCCCCNC(=N)N)c1nnn[nH]1 [8-Guanidinooctanoyl-L-aspartyl-L-valine-5-tetrazole]
IC50 [1]: > 25000 nM | inhibition at 25 µM [1]: 32%

N=C(N)NCCCCCCCC(=O)NCC(=O)NCC(=O)O [8-Guanidinooctanoyl-glycyl-glycine]
inhibition at 25 µM [1]: 12%

CCC(C)[C@H](CCCNC(=N)N)NC(=O)[C@H](CC(=O)O)NC(=O)CCCCCCCCNC(=N)N (stereo partly drawn) [9-Guanidinononanoyl-L-aspartyl-((S)-4-amino-4-sec-butylbutyl)guanidine]
inhibition at 25 µM [1]: 76%

CC(C)CC(CCCN)(NC(=O)[C@H](CC(=O)O)NC(=O)CCCCCCCCNC(=N)N)C(=O)O (stereo partly drawn) [9-Guanidinononanoyl-L-aspartyl-(R,S)-α-isobutylornithine]
IC50 [1]: > 25000 nM | inhibition at 25 µM [1]: 4%

COC(=O)[C@](CCCNC(=N)N)(CC(C)C)NC(=O)[C@H](CC(=O)O)NC(=O)CCCCCCCCNC(=N)N [9-Guanidinononanoyl-L-aspartyl-(S)-α-isobutyl-arginine methylester]
IC50 [1]: > 25000 nM | inhibition at 25 µM [1]: 0%

CCC(C)C[C@@H](NC(=O)[C@H](CC(=O)O)NC(=O)CCCCCCCCNC(=N)N)C(=O)N[C@@H](CCCNC(=N)N)C(=O)O (stereo partly drawn) [9-Guanidinononanoyl-L-aspartyl-D-homoisoleucyl-L-arginine]
inhibition at 25 µM [1]: 98%

CC[C@@H](C)[C@H](CC(=O)NCCCCNC(=N)N)NC(=O)[C@H](CC(=O)O)NC(=O)CCCCCCCCNC(=N)N [9-Guanidinononanoyl-L-aspartyl-D-β-homoiso-leucyl-(des-carboxy)-L-arginine]
IC50 [1]: 3300 nM | inhibition at 25 µM [1]: 94%

C[C@H](NC(=O)[C@H](CC(=O)O)NC(=O)CCCCCCCCNC(=N)N)C(=O)N[C@@H](CCCNC(=N)N)C(=O)O [9-Guanidinononanoyl-L-aspartyl-L-alanyl-L-arginine]
IC50 [1]: 540 nM | inhibition at 25 µM [1]: 89%

COC(=O)[C@H](CCCNC(=N)N)NC(=O)[C@H](CC(=O)O)NC(=O)CCCCCCCCNC(=N)N [9-Guanidinononanoyl-L-aspartyl-L-arginine methylester]
IC50 [1]: 1700 nM | inhibition at 25 µM [1]: 91%

CC[C@H](C)[C@H](NC(=O)[C@@H](NC(=O)[C@H](CC(=O)O)NC(=O)CCCCCCCCNC(=N)N)[C@@H](C)CC)C(=O)O [9-Guanidinononanoyl-L-aspartyl-L-isoleucyl-L-isoleucine]
IC50 [1]: > 25000 nM | inhibition at 25 µM [1]: 45%

CC(C)C[C@H](NC(=O)[C@H](CC(=O)O)NC(=O)CCCCCCCCNC(=N)N)C(=O)N[C@@H](CCCNC(=N)N)C(=O)O [9-Guanidinononanoyl-L-aspartyl-L-leucyl-L-arginine]
IC50 [1]: 520 nM | inhibition at 25 µM [1]: 96%

CC(C)(C)[C@H](NC(=O)[C@H](CC(=O)O)NC(=O)CCCCCCCCNC(=N)N)C(=O)N[C@@H](CCCNC(=N)N)C(=O)O [9-Guanidinononanoyl-L-aspartyl-L-t-butylglycyl-L-arginine]
IC50 [1]: 1500 nM | inhibition at 25 µM [1]: 96%

CC(C)[C@H](NC(=O)[C@H](CC(=O)O)NC(=O)CCCCCCCCNC(=N)N)C(=O)N[C@@H](CCCNC(=N)N)C(=O)O [9-Guanidinononanoyl-L-aspartyl-L-valine-L-arginine]
IC50 [1]: 220 nM | inhibition at 25 µM [1]: 98%

CCC(C)C[C@H](NC(=O)[C@H](CC(=O)O)NC(=O)CCCCCCCCNC(=N)N)C(=O)N[C@@H](CCCNC(=N)N)C(=O)O (stereo partly drawn) [9-Guanidinononanoyl-L-aspartyl-homo-L-isoleucyl-L-arginine]
inhibition at 25 µM [1]: 94%

CC[C@H](C)[C@@H](CN[C@@H](CCCNC(=N)N)C(=O)O)NC(=O)[C@H](CC(=O)O)NC(=O)CCCCCCCCNC(=N)N [9-Guanidinononanoyl-L-aspartyl-β-homo-L-isoleucyl psi(CH2 NH)-L-arginine]
inhibition at 25 µM [1]: 38%

CC(C)C[C@@H](CCCNC(=N)N)NC(=O)[C@H](CC(=O)O)NC(=O)CCCCCCCCNC(=N)N [(R)-4-[N-(9-Guanidinononanoyl-L-aspartyl)-amino]-4-isobutylbutylguanidine]
inhibition at 25 µM [1]: 94%

CC(C)[C@H](NC(=O)[C@H](CC(=O)O)N(C)C(=O)CNC(=O)[C@@H](N)CCCNC(=N)N)C(=O)O [L-arginyl-glycyl-L-N-methylaspartyl-L-valine] (H-RG[NMeD]V-OH)
IC50 [1]: > 64000 nM

N=C(N)NCCC[C@H](N)C(=O)NCC(=O)N[C@@H](CC(=O)O)C(=O)NCC(=O)O [L-arginylglycyl-L-aspartyl glycine] (H-RGDG-OH)
IC50 [1]: 14300 nM | inhibition at 100 µM [1]: 91%

CCC(C)C(CNC(=O)[C@H](CC(=O)O)NC(=O)CCCCCCCCNC(=N)N)C(=O)N[C@@H](CCCNC(=N)N)C(=O)O (stereo partly drawn) [N-(9-Guanidinononanoyl-L-aspartyl)-3-amino-2-sec-butyl propionic acid L-arginine amide]
inhibition at 25 µM [1]: 89%

CC(C)C[C@@H](CCC(=O)N[C@@H](CCCNC(=N)N)C(=O)O)NC(=O)[C@H](CC(=O)O)NC(=O)CCCCCCCCNC(=N)N [N-[N-(9-Guanidinononanoyl-L-aspartyl)-(R)-4-amino-4-isobutylbutyryl]-L-arginine]
IC50 [2]: 2100 nM

CC(C)[C@H](NC(=O)[C@@H](N)CCCNC(=O)[C@@H](N)CCCNC(=N)N)C(=O)O [N-δ-(L-arginyl)-L-ornithyl-L-valine] (H-[Orn](Arg)-Val-OH)
inhibition at 100 µM [1]: 20%
